According to patent US8404679B2, “Pyrrolidine derivatives as NK2 receptor antagonists” (Hoffmann-La Roche Inc., priority 2008, dated 2013):

Tests used:
human NK2 receptor = biological target: T1, human NK2 receptor (Homo sapiens, UniProt P21452); test: [3H]SR48968 competition binding assay; settings: [3H]SR48968 displacement, membranes of CHO cells stably expressing recombinant human NK2 receptor; Ki from IC50 by Cheng-Prussoff
T1 construct: purchased Perkin Elmer biosignal Inc. 6110510
T1 sequence (P21452 1-398): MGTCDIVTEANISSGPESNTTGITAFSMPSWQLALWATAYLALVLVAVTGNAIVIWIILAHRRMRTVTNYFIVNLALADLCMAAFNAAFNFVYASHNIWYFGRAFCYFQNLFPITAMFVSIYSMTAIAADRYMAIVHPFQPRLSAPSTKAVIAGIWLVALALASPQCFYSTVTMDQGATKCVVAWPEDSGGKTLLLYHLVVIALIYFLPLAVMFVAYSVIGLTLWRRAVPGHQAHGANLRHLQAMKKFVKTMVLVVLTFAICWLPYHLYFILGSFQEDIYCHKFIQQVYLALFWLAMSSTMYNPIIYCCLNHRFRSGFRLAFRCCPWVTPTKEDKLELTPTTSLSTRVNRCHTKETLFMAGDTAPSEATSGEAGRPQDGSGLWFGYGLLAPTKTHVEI
Procedure, shortened: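 Membranes from CHO cells stably expressing recombinant human NK2 were incubated 75 min at RT with [3H]SR48968 at its KD and 10 compound concentrations (0.0003–10 μM) in Tris-HCl pH 7.4, MnCl2, chymostatin, BSA. Filter-bound radioactivity was counted; Hill-fitted IC50 converted to Ki via Cheng-Prusoff.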

rodents = settings: elevated plus maze and light/dark test in rodents; cited from earlier work
[1] = test system: mouse, gerbils and marmosets; settings: cited from earlier work

Row | Ki (human NK2 receptor) [nM] | Compound | efficacy in exploration based procedures sensitive to anxiolytics (rodents) | efficacy in procedures sensitive to anti-depressants [1]
1 | 0.6 | CN(C(=O)c1ccc(Cl)c(C2CC2)c1)[C@@H]1CN(C(=O)C2CCN(C(=O)C3(C)CC3)CC2)C[C@H]1c1ccc(Cl)c(Cl)c1 [Example 176, 4-Chloro-3-cyclopropyl-N-{(3S,4R)-4-(3,4-dichloro-phenyl)-1-[1-(1-methyl-cyclopropanecarbonyl)-piperidine-4-carbonyl]-pyrrolidin-3-yl}-N-methyl-benzamide] |  | 
2 |  | CC(=O)NC1(c2ccccc2)CCN(CC[C@H](CN(C)C(=O)c2ccccc2)c2ccc(Cl)c(Cl)c2)CC1 [Saredutant] | effective | Efficacy
